Data: patent US20130337564A1, “Treatment of Pluripotent Cells” (Janssen Biotech, Inc., priority 2012, published 2013)

Key:
[1] = system: human embryonic stem cell line H1; test: Dose titration secondary assay: cell number, H1; assay type: cell-based; conditions: positive control (Wnt3a/Activin A) normalized to 1.000
Experimental: (§1) It was important to confirm the activity of hits identified from primary screening and further analyze the range of activity by dose titration. New samples of a selective subset of primary screening hits were obtained as dry powders, solubilized to make fresh stock reagents, and diluted into secondary confirmation assays to evaluate effects on human embryonic stem cells.
(§2) Culture of two human embryonic stem cells (H1 and H9) was conducted as described in Example 1. Colonies of cells were maintained in an undifferentiated, pluripotent state on Matrigel™ ([…]) coated polystyrene plastic, using a 1:30 dilution of Matrigel™ in DMEM:F12 to coat the surface. Cells were split by enzymatic passage every four days on average. Passage was performed by exposing cell monolayers to a solution of collagenase (1 mg/ml; Sigma-Aldrich) for 10 to 60 minutes at 37° C. followed by gentle scraping with a pipette tip to recover cell clusters. Clusters were allowed to sediment by gravity, then washed to remove residual collagenase. Cell clusters were split at a 1:3 ratio for maintenance culture or a 1:1 ratio for subsequent assay. The human embryonic stem cell lines were maintained at less than passage 50 and routinely evaluated for normal karyotypic phenotype and absence of mycoplasma contamination.
(§3) Cell clusters of the H1 or H9 human embryonic stem cell lines used in the assay were evenly resuspended in culture medium and plated onto Matrigel™-coated 96-well Packard VIEWPLATES (PerkinElmer) in volumes of 100 μl/well. MEF conditioned medium supplemented with 8 ng/ml bFGF was used for initial plating and expansion. Daily feeding was conducted by aspirating spent culture medium from each well and replacing with an equal volume of fresh medium. Cultures were allowed to expand one to three days after plating prior to initiating assay. Plates were maintained at 37° C., 5% CO2 in a humidified box for the duration of assay.
(§4) A subset of hits resulting from primary screening was used for follow-up study and subsequent secondary assays. Twenty compounds available as dry powders were solubilized as 10 mM stocks in DMSO and stored dessicated at […] until use Immediately prior to assay, compound stocks were diluted 1:1000 to make 10 μM test compound in DMEM:F12 base medium (Invitrogen) supplemented with 0.5% FCS (HyClone) and 100 ng/ml Activin A (R&D Biosystems). This was further diluted two-fold in series to make a seven point dilution curve for each compound, also in DMEM:F12 base medium with 0.5% FCS and 100 ng/ml Activin A.
(§5) Assay was initiated by aspirating culture medium from cell monolayers in each well followed by three washes in PBS to remove residual growth factors and serum. Test volumes of 100 μl per well were added back containing medium with 0.5% FCS and different concentrations of inhibitor compounds with 100 ng/ml Activin A, without Wnt3a. Positive control wells contained the same base medium with 0.5% FCS and with 20 ng/ml Wnt3a (R&D Biosystems) in the absence of test compound. Negative control wells contained the same base medium with 0.5% FCS, in the absence of Activin A, Wnt3a, or test compound. Assay wells were aspirated and fed again with identical concentrations of test compound or control solutions on day 2 of assay. On days 3 and 4, all assay wells were aspirated and fed with DMEM:F12 supplemented with 2% FCS and 100 ng/ml Activin A in the absence of both test compound or Wnt3a. Parallel negative control wells were maintained on days 3 and 4 in DMEM:F12 base medium with 2% FCS.
(§6) At the end of culture, cells in 96-well plates were washed twice with PBS then fixed with 4% paraformaldehyde at room temperature for 20 minutes, washed three times more with PBS, and then permeabilized with 0.5% Triton X-100 for 20 minutes at room temperature. After fixing and permeabilizing, cells were washed again three times with PBS and then blocked with 4% chicken serum (Invitrogen) in PBS for 30 minutes at room temperature. […]

[2] = system: Sox17 expression in human embryonic stem cell line H1; test: Dose titration secondary assay: Sox17 intensity, H1; assay type: cell-based
Experimental: as §1, §2, §3, §4, §5, §6

O=C1NC(=O)C2=C1c1cn(c3ccccc13)CCOCCOCCN(Cc1cccc3ccccc13)CCn1cc2c2ccccc21 [Compound 136, 14-(Naphthalen-1-ylmethyl)-6,7,9,10,13,14,15,16-octahydro-12H,23H-5,26:17,22-di(metheno)dibenzo[k,q]pyrrolo[3,4-n][1,4,7,10,19]dioxatriazacyclohenicosine-23,25(24H)-dione]
Cell number ([1]; Conc 0.156 μM): 0.742
Cell number ([1]; Conc 0.313 μM): 0.868
Cell number ([1]; Conc 0.625 μM): 0.910
Cell number ([1]; Conc 1.25 μM): 0.850
Cell number ([1]; Conc 2.5 μM): 0.428
Cell number ([1]; Conc 5 μM): 0.173
Cell number ([1]; Conc 10 μM): 0.058
Sox17 Intensity ([2]; 0.156 μM compound): 0.666
Sox17 Intensity ([2]; 0.313 μM compound): 0.859
Sox17 Intensity ([2]; 0.625 μM compound): 0.887
Sox17 Intensity ([2]; 1.25 μM compound): 0.783
Sox17 Intensity ([2]; 2.5 μM compound): 0.373
Sox17 Intensity ([2]; 5 μM compound): 0.141
Sox17 Intensity ([2]; 10 μM compound): 0.054
